Measurements taken from PubChem BioAssay (NCI).
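1) Cells in 96-well plates. 2) Compound, 48 h, 5 concentrations. 3) Linear interpolation between surrounding doses. 4) Unreached endpoint = highest concentration. Here, GI50 denotes the concentration required for 50% inhibition of growth. The concentration for full growth arrest is given as TGI.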

Assays:
Test in all cases: growth of human tumour cells (NCI), 48 h
786-0 renal = system: 786-0 renal
A498 renal = system: A498 renal
ACHN renal = system: ACHN renal
BT-549 breast = system: BT-549 breast
CAKI-1 renal = system: CAKI-1 renal
DU-145 prostate = system: DU-145 prostate
EKVX NSCLC = system: EKVX NSCLC
HCC-2998 colon = system: HCC-2998 colon
HCT-116 colon = system: HCT-116 colon
HCT-15 colon = system: HCT-15 colon
HOP-92 NSCLC = system: HOP-92 NSCLC
HS 578T breast = system: HS 578T breast
IGROV1 ovarian = system: IGROV1 ovarian
K-562 leukemia = system: K-562 leukemia
KM12 colon = system: KM12 colon
LOX IMVI melanoma = system: LOX IMVI melanoma
M14 melanoma = system: M14 melanoma
MALME-3M melanoma = system: MALME-3M melanoma
MCF7 breast = system: MCF7 breast
MDA-MB-231 breast = system: MDA-MB-231 breast
MDA-MB-435 = system: MDA-MB-435
MDA-MB-468 breast = system: MDA-MB-468 breast
MOLT-4 leukemia = system: MOLT-4 leukemia
NCI-H226 lung = system: NCI-H226 lung
NCI-H23 lung = system: NCI-H23 lung

For `CC1(C)CC[C@]23CC[C@]4(C)[C@H](CC[C@@H]5[C@@]6(C)CC[C@H](N)C(C)(C)[C@@H]6CC[C@]54C)[C@H]2[C@H]1OC3=O`, the GI50 (786-0 renal) was 1.45 µM, the TGI (786-0 renal) was 2.92 µM and the GI50 (A498 renal) was 1.48 µM. For the same compound, the TGI (A498 renal) was 3.44 µM, the GI50 (ACHN renal) was 1.68 µM and the TGI (ACHN renal) was 3.05 µM. The GI50 (BT-549 breast) was 1.52 µM, the TGI (BT-549 breast) was 2.92 µM and the GI50 (CAKI-1 renal) was 1.57 µM. The TGI (CAKI-1 renal) was 2.98 µM, the GI50 (DU-145 prostate) was 1.81 µM and the TGI (DU-145 prostate) was 3.31 µM. It also gave a GI50 (EKVX NSCLC) of 1.7 µM, a TGI (EKVX NSCLC) of 3.16 µM and a GI50 (HCC-2998 colon) of 1.61 µM. The TGI (HCC-2998 colon) was 3.02 µM, the GI50 (HCT-116 colon) was 1.6 µM and the TGI (HCT-116 colon) was 3.05 µM. It also gave a GI50 (HCT-15 colon) of 1.64 µM, a TGI (HCT-15 colon) of 3.07 µM and a GI50 (HOP-92 NSCLC) of 1.59 µM. The TGI (HOP-92 NSCLC) was 3.15 µM, the GI50 (HS 578T breast) was 1.89 µM and the TGI (HS 578T breast) was 4.09 µM. For the same compound, the GI50 (IGROV1 ovarian) was 1.68 µM, the TGI (IGROV1 ovarian) was 3.1 µM and the GI50 (K-562 leukemia) was 2.53 µM. The TGI (K-562 leukemia) was > 100 µM, the GI50 (KM12 colon) was 1.82 µM and the TGI (KM12 colon) was 3.41 µM. For the same compound, the GI50 (LOX IMVI melanoma) was 1.68 µM, the TGI (LOX IMVI melanoma) was 3.05 µM and the GI50 (M14 melanoma) was 1.81 µM. The TGI (M14 melanoma) was 3.34 µM, the GI50 (MALME-3M melanoma) was 1.67 µM and the TGI (MALME-3M melanoma) was 3.06 µM. The GI50 (MCF7 breast) was 1.57 µM, the TGI (MCF7 breast) was 3.22 µM and the GI50 (MDA-MB-231 breast) was 1.69 µM. For the same compound, the TGI (MDA-MB-231 breast) was 3.09 µM, the GI50 (MDA-MB-435) was 1.6 µM and the TGI (MDA-MB-435) was 3.11 µM. For the same compound, the GI50 (MDA-MB-468 breast) was 1.69 µM, the TGI (MDA-MB-468 breast) was 3.18 µM and the GI50 (MOLT-4 leukemia) was 1.85 µM. For the same compound, the TGI (MOLT-4 leukemia) was 4.38 µM, the GI50 (NCI-H226 lung) was 2.15 µM and the TGI (NCI-H226 lung) was 5.47 µM. The GI50 (NCI-H23 lung) was 1.74 µM.
